Laboratory results published in patent US20220235065A1 (Epizyme, Inc., priority 2016, published 2022).
Where a name gives a salt, the structure may show the parent alone.

Tested on: H3K9me2 in MDA-MB-231 cells
Test: MDA-MB-231 H3K9me2 in-cell western assay
Format: cell-based
Settings: Homo sapiens, read-out: EHMT2 ICW (IC50 μM)
Outline: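 MDA-MB-231 cells (3,000/well) exposed to compound for two consecutive 48 h periods at 37 °C, then fixed and stained for H3K9me2, with DRAQ5 as DNA stain and infrared read at 700/800 nm. Percent inhibition was set between DMSO and UNC0638 control wells. IC50 came from triplicate dose–response fits with a four-parameter model, top 100%, bottom 0%.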

Row | SMILES | IC50
1 | CNc1cc(C)nc(Nc2ccc(OC)c(-c3cc(C4CC4)on3)c2)n1 [Compound 13] | 1 to 10 µM
2 | CNc1cc(C)nc(Nc2ccc(OC)c(-n3cc(C4CC4)cn3)c2)n1 [Compound 14, 2-N-[3-(4-cyclopropyl-1H-pyrazol-1-yl)-4-methoxyphenyl]-4-N,6-dimethylpyrimidine-2,4-diamine] | 1 to 10 µM
3 | CNc1cc(C)nc(Nc2ccc(OC)c(-n3cccn3)c2)n1 [Compound 15, 2-N-[4-methoxy-3-(1H-pyrazol-1-yl)phenyl]-4-N,6-dimethylpyrimidine-2,4-diamine; trifluoroacetic acid] | > 10 µM
4 | CNc1cc(C)nc(Nc2cnc(OC)c(-n3ncc4c3CCNC4)c2)n1 [Compound 19] | 1 to 10 µM
5 | CNc1cc(C)nc(Nc2ccc(OC)c(-c3nnc4n3CCNC4)c2)n1 [Compound 21] | > 10 µM
6 | CNc1cc(C)nc(Nc2ccc(OC)c(-n3cc4c(n3)CNCC4)c2)n1 [Compound 22, 2-N-(4-methoxy-3-[2H,4H,5H,6H,7H-pyrazolo[3,4-c]pyridin-2-yl]phenyl)-4-N,6-dimethylpyrimidine-2,4-diamine hydrochloride] | > 10 µM
7 | CNc1cc(C)nc(Nc2ccc(OC)c(-n3cc(CN)cn3)c2)n1 [Compound 23, 2-N-[3-[4-(aminomethyl)-1H-pyrazol-1-yl]-4-methoxyphenyl]-4-N,6-dimethylpyrimidine-2,4-diamine; trifluoroacetic acid] | 1 to 10 µM
8 | CNc1cc(C)nc(Nc2ccc(OC)c(-n3nccc3CN)c2)n1 [Compound 24] | > 10 µM
9 | CNc1cc(C)nc(Nc2ccc(OC)c(-n3ncc4c3CCCC4)c2)n1 [Compound 26, 2-N-[4-methoxy-3-(4,5,6,7-tetrahydro-1H-indazol-1-yl)phenyl]-4-N,6-dimethylpyrimidine-2,4-diamine trifluoroacetic acid] | > 10 µM
10 | CNc1nc(Nc2ccc(OC)c(-n3cc4c(n3)CCNC4)c2)nc(C)c1F [Compound 27, 5-fluoro-2-N-(4-methoxy-3-[2H,4H,5H,6H,7H-pyrazolo[4,3-c]pyridin-2-yl]phenyl)-4-N,6-dimethylpyrimidine-2,4-diamine trifluoroacetic acid] | 1 to 10 µM
11 | CNc1nc(Nc2ccc(OC)c(-n3ncc4c3CCNC4)c2)nc(C)c1F [Compound 28, 5-fluoro-2-N-(4-methoxy-3-[1H,4H,5H,6H,7H-pyrazolo[4,3-c]pyridin-1-yl]phenyl)-4-N,6-dimethylpyrimidine-2,4-diamine trifluoroacetic acid] | 1 to 10 µM
12 | CNc1cc(C)nc(Nc2ccc(OC)c(-c3c(C)nc4n3CCNC4)c2)n1 [Compound 30] | > 10 µM
13 | CNc1cc(C)nc(Nc2ccc(OC)c(-c3nnc4n3CCN(C)C4)c2)n1 [Compound 31] | > 10 µM
14 | CNc1cc(C)nc(Nc2ccc(OC)c(-n3ncc4c3CCCN4)c2)n1 [Compound 32] | > 10 µM
15 | CNc1cc(C)nc(Nc2ccc(OC)c(-c3cccc4[nH]ccc34)c2)n1 [Compound 33, 2-N-[3-(1H-indol-4-yl)-4-methoxyphenyl]-4-N,6-dimethylpyrimidine-2,4-diamine hydrochloride] | > 10 µM
16 | CNc1cc(C)nc(Nc2ccc(OC)c(-n3ncc4cnccc43)c2)n1 [Compound 35, 2-N-(4-methoxy-3-[1H-pyrazolo[4,3-c]pyridin-1-yl]phenyl)-4-N,6-dimethylpyrimidine-2,4-diamine; trifluoroacetic acid] | 1 to 10 µM
17 | CNc1cc(C)nc(Nc2ccc(OC)c(-n3ncc4ccncc43)c2)n1 [Compound 36] | > 10 µM
18 | CNc1cc(C)nc(Nc2ccc(OC)c(-c3cccc4[nH]ncc34)c2)n1 [Compound 37, 2-N-[3-(1H-indazol-4-yl)-4-methoxyphenyl]-4-N,6-dimethylpyrimidine-2,4-diamine; trifluoroacetic acid] | > 10 µM
19 | CNc1cc(C)nc(Nc2ccc(OC)c(-c3nc4cnccn4n3)c2)n1 [Compound 38] | > 10 µM
20 | CNc1cc(C)nc(Nc2ccc(OC)c(-c3c(C)nc4cnccn34)c2)n1 [Compound 39] | > 10 µM
21 | CCc1ccc(Nc2nc(C)cc(NC)n2)cc1C(=O)Nc1cccnc1 [Compound 244] | > 10 µM
22 | CNc1cc(C)nc(Nc2ccc(Cl)c(C(=O)Nc3ccnnc3)c2)n1 [Compound 245] | > 10 µM
23 | CNc1cc(C)nc(Nc2ccc(Cl)c(C(=O)Nc3nccs3)c2)n1 [Compound 246] | 1 to 10 µM

Row | SMILES | IC50
24 | Cc1cc(NC2CCNCC2)ncc1-c1cc2[nH]ccc2cn1 [Compound 247] | > 10 µM
25 | CNc1cc(C)nc(Nc2ccc(Cl)c(C(=O)Nc3cnccn3)c2)n1 [Compound 251] | 1 to 10 µM
26 | CNc1cc(C)nc(Nc2ccc(Cl)c(-c3cc4[nH]ccc4cn3)c2)n1 [Compound 255] | 0.1 to 1 µM
27 | CNc1cc(C)nc(Nc2ccc(C)c(-c3cc4[nH]ccc4cn3)c2)n1 [Compound 256] | 0.1 to 1 µM
28 | CNc1nc2cc(-c3cc4[nH]ccc4cn3)c(C)cc2n1C [Compound 257] | 1 to 10 µM
29 | CNc1cc(C)nc(Nc2ccc(Cl)c(C(=O)Nc3ncccn3)c2)n1 [Compound 258] | 1 to 10 µM
30 | CNc1cc(C)nc(Nc2ccc(Cl)c(C(=O)Nc3ccncn3)c2)n1 [Compound 259] | > 10 µM
31 | CNc1cc(C)nc(Nc2ccc(Cl)c(-c3cc4c(cn3)CC(=O)N4)c2)n1 [Compound 260] | > 10 µM
32 | CNCc1cnn(-c2cc(Nc3nc(C)cc(NC)n3)ccc2Cl)c1 [Compound 262, N2-(4-chloro-3-(4-((methylamino)methyl)-1H-pyrazol-1-yl)phenyl)-N4,6-dimethylpyrimidine-2,4-diamine] | < 0.1 µM
33 | CCc1ccc(Nc2nc(C)cc(NC)n2)cc1-c1cc2ccncc2[nH]1 [Compound 269] | 0.1 to 1 µM
34 | CNc1cc(C)nc(Nc2ccc(C)c(-c3[nH]c4cnccc4c3C#N)c2)n1 [Compound 271] | > 10 µM
35 | CNc1cc(C)nc(Nc2ccc(C)c(-c3cc4ccccc4[nH]3)c2)n1 [Compound 274] | > 10 µM
36 | CCNc1c[nH]c(=O)c(-c2cc(Nc3nc(C)cc(NC)n3)ccc2C)c1 [Compound 276] | 1 to 10 µM
37 | CNc1nc2cc(-c3cc4ccncc4[nH]3)c(C)cc2n1C [Compound 278] | 0.1 to 1 µM
38 | CNc1cc(C)nc(Nc2ccc(C)c(-c3nc4ccncc4[nH]3)c2)n1 [Compound 279] | 1 to 10 µM
39 | CNc1cc(C)nc(Nc2ccc(C)c(C(=O)Nc3cscn3)c2)n1 [Compound 280] | > 10 µM
40 | CNc1cc(C)nc(Nc2ccc(C)c(-n3cc4cnccc4n3)c2)n1 [Compound 282] | < 0.1 µM
41 | CNCc1cnn(-c2cc(Nc3nc(C)cc(NC)n3)ccc2OC)c1 [Compound 285] | < 0.1 µM
42 | CNCc1cnn(-c2cc(Nc3nc(C)cc(NC)n3)ccc2C)c1 [Compound 286, N4,6-dimethyl-N2-(4-methyl-3-(4-((methylamino)methyl)-1H-pyrazol-1-yl)phenyl)pyrimidine-2,4-diamine] | < 0.1 µM
43 | CNc1cc(C)nc(Nc2ccc(C)c(C(=O)Nc3cnccn3)c2)n1 [Compound 287] | 1 to 10 µM
44 | CNc1cc(C)nc(Nc2ccc(OC)c(-c3[nH]c4cnccc4c3C#N)c2)n1 [Compound 291] | 1 to 10 µM
45 | CNc1cc(C)nc(Nc2ccc(OC)c(-c3cc4[nH]ccc4c(C#N)n3)c2)n1 [Compound 292] | 0.1 to 1 µM
46 | CNc1cc(C)nc(Nc2ccc(OC)c(-c3cc4[nH]ccc4c(CNC(C)=O)n3)c2)n1 [Compound 293] | 1 to 10 µM

Row | SMILES | IC50
47 | CNC1=Nc2cc(-c3cnc4cc[nH]c4c3)c(OC)cc2C12CCC2 [Compound 294] | 1 to 10 µM
48 | CNc1nc2cc(-c3cnc4cc[nH]c4c3)c(OC)cc2n1C [Compound 295] | 1 to 10 µM
49 | CNc1cc(C)nc(Nc2ccc(OC)c(-c3cc4[nH]ccc4c(CN)n3)c2)n1 [Compound 296] | 1 to 10 µM
50 | CNc1cc(C)nc(Nc2ccc(C)c(C(=O)Nc3cn(C)nn3)c2)n1 [Compound 299] | > 10 µM
51 | CNC1=Nc2cc(-c3cc4[nH]ccc4nc3C)c(OC)cc2C12CCC2 [Compound 300] | 0.1 to 1 µM
52 | CNc1cc(C)nc(Nc2ccc(C)c(C(=O)Nc3cn(C)cn3)c2)n1 [Compound 302] | > 10 µM
53 | CNc1nc2cc(-c3[nH]c4cnccc4c3C)c(OC)cc2n1C [Compound 304] | > 10 µM
54 | COc1cc(NC2CCNC2)ccc1-c1[nH]c2cnccc2c1C (centres unmarked) [Compound 305] | > 10 µM
55 | CNc1cc(C)nc(Nc2ccc(OC)c(-c3nccc(NC)n3)c2)n1 [Compound 306] | > 10 µM
56 | CNCc1cnn(-c2c(F)ccc(Nc3nc(C)cc(NC)n3)c2F)c1 [Compound 307] | 0.1 to 1 µM
57 | CNC1=Nc2cc(-c3cc4[nH]ccc4c(C(N)=O)n3)c(OC)cc2C12CCC2 [Compound 308] | > 10 µM
58 | COc1cc2c(cc1-c1cc3[nH]ccc3cn1)N=C(NCC(N)=O)C21CCC1 [Compound 309] | > 10 µM
59 | COc1cc(NC2CCNCC2)ccc1-c1[nH]c2cnccc2c1C [Compound 310] | > 10 µM
60 | CNc1cc(C)nc(Nc2cnc(C)c(-c3cc4ccncc4[nH]3)c2)n1 [Compound 311] | > 10 µM
61 | CNCc1ccnc(-c2cc(Nc3nc(C)cc(NC)n3)ccc2OC)c1 [Compound 313] | 1 to 10 µM
62 | CNC1=Nc2cc(-n3cc(CN4CCC4)cn3)c(OC)cc2C12CCC2 [Compound 314] | 0.1 to 1 µM
63 | CNc1cc(C)nc(Nc2ccc(F)c(-n3cc(CN4CCC4)cn3)c2F)n1 [Compound 315] | 1 to 10 µM
64 | CNc1cc(C)nc(Nc2ccc(OC)c(-c3[nH]c4cnccc4c3CNC(C)=O)c2)n1 [Compound 316] | 0.1 to 1 µM
65 | CNCc1cnn(-c2c(OC)ccc(Nc3nc(C)cc(NC)n3)c2F)c1 [Compound 317, N2-(2-fluoro-4-methoxy-3-(4-((methylamino)methyl)-1H-pyrazol-1-yl)phenyl)-N4,6-dimethylpyrimidine-2,4-diamine] | < 0.1 µM
66 | CNCc1cnn(-c2c(F)ccc(Nc3nc(C)cc(NC)n3)c2OC)c1 [Compound 318] | 0.1 to 1 µM
67 | CNCc1cnn(-c2cc(Nc3nc(C)cc(NC)n3)ccc2Br)c1 [Compound 319] | < 0.1 µM
68 | CCc1ccc(Nc2nc(C)cc(NC)n2)cc1-n1cc(CNC)cn1 [Compound 320] | 0.1 to 1 µM
